Assay results taken from the supplement of paper PMC10307832.

Assays:
Test in all cases: relative viability (nuclei count vs DMSO), 5 days (fraction); higher = more cells survive
[1] = compound: Cc1ccc(Nc2nccc(N(C)c3ccc4c(C)n(C)nc4c3)n2)cc1S(N)(=O)=O [Pazopanib] + CC1(C)CCC(c2ccc(Cl)cc2)=C(CN2CCN(c3ccc(C(=O)NS(=O)(=O)c4ccc(N[C@H](CCN5CCOCC5)CSc5ccccc5)c(S(=O)(=O)C(F)(F)F)c4)cc3)CC2)C1 [Navitoclax] (partner 0.5 µM)
Summary of the method: (§1)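 Lung cancer cell lines in 1536-well plates were dosed by pin tool the day after seeding, either with one drug alone or with a fixed anchor-drug dose plus five library-drug doses (not always all listed) in √10 steps. After 5 days, cells were fixed and their nuclei stained in one step (final 0.05% Triton X-100, 1% formaldehyde, 1 ug/ml Hoechst), then counted on 4× images. Relative viability is the nuclei count in treated wells divided by that in vehicle wells. Values are medians of duplicate plates.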

[2] = compound: Cc1ccc(Nc2nccc(N(C)c3ccc4c(C)n(C)nc4c3)n2)cc1S(N)(=O)=O [Pazopanib] + C[C@@H](Oc1cc(-c2cnn(C3CCNCC3)c2)cnc1N)c1c(Cl)ccc(F)c1Cl [Crizotinib] (partner 1 µM)
Summary of the method: as §1

[3] = compound: Cc1ccc(C(=O)Nc2ccc(CN3CCN(C)CC3)c(C(F)(F)F)c2)cc1C#Cc1cnc2cccnn12 [Ponatinib] + Cc1cc(Nc2cc(N3CCN(C)CC3)nc(Sc3ccc(NC(=O)C4CC4)cc3)n2)n[nH]1 [Tozasertib] (partner 0.1 µM)
Summary of the method: as §1

[4] = compound: Cc1ccc(Nc2nccc(N(C)c3ccc4c(C)n(C)nc4c3)n2)cc1S(N)(=O)=O [Pazopanib] + Nc1nc2[nH]cc(CCc3ccc(C(=O)N[C@@H](CCC(=O)O)C(=O)O)cc3)c2c(=O)[nH]1 [Pemetrexed] (partner 0.2 µM)
Summary of the method: as §1

Cell Line	relative viability ([1]; first compound 0.01 µM)	relative viability ([1]; first compound 0.03162 µM)	relative viability ([1]; first compound 0.1 µM)	relative viability ([1]; first compound 0.3162 µM)	relative viability ([1]; first compound 1 µM)	relative viability ([2]; first compound 0.01 µM)	relative viability ([2]; first compound 0.03162 µM)	relative viability ([2]; first compound 0.1 µM)	relative viability ([2]; first compound 0.3162 µM)	relative viability ([2]; first compound 1 µM)	relative viability ([3]; first compound 0.002 µM)	relative viability ([3]; first compound 0.006325 µM)	relative viability ([3]; first compound 0.06325 µM)	relative viability ([3]; first compound 0.2 µM)	relative viability ([4]; first compound 0.01 µM)	relative viability ([4]; first compound 0.03162 µM)	relative viability ([4]; first compound 0.1 µM)	relative viability ([4]; first compound 0.3162 µM)	relative viability ([4]; first compound 1 µM)
NCI-H1915	0.821	0.782	0.78	0.768	0.729	0.875	0.974	0.911	0.847	0.79	0.396	0.487	0.313	0.366	0.509	0.442	0.472	0.467	0.474
NCI-H647	1.14	1.08	1.21	1.17	1.16	1	1.22	1.26	1.01	1.06	0.318	0.224	0.288	0.259	0.174	0.159	0.164	0.153	0.177
NCI-H441	0.516	0.493	1.12	0.553	0.765	0.686	0.704	0.639	0.625	0.596	0.602	0.529	0.588	0.488	0.236	0.274	0.272	0.224	0.253
NCI-H2228	0.847	1.1	1.03	0.98	0.913	0.51	0.446	0.402	0.496	0.366	0.225	0.286	0.161	0.234	0.366	0.337	0.296	0.348	0.333
NCI-H2085	1.18	1.22	1.26	1.15	1.31	0.952	0.968	0.911	0.919	0.935	0.722	0.849	0.662	0.576	0.816	1.09	0.804	0.949	1.03
NCI-H838	1.1	1.22	1.21	1.24	1.26	0.821	0.951	0.982	0.912	1.08	0.275	0.271	0.286	0.256	0.272	0.231	0.265	0.252	0.227
NCI-H460	0.849	1.19	1.34	1.16	1.15	0.931	1.15	0.849	1	0.963	0.407	0.526	0.19	0.0908	0.0583	0.0636	0.0629	0.0703	0.0742
LOU-NH91	0.718	0.701	0.732	0.843	0.766	0.726	0.731	0.711	0.757	0.761	0.65	0.668	0.71	0.595	0.367	0.356	0.417	0.416	0.352
NCI-H322M	1.03	1.19	1.27	1.36	1.24	0.922	0.924	0.784	0.893	0.844	0.429	0.412	0.41	0.423	0.703	0.662	0.633	0.623	0.658
NCI-H520	–	1.18	0.955	1.05	0.98	–	0.894	0.991	0.672	0.747	0.45	0.419	0.397	0.372	0.642	0.728	0.768	0.755	0.602
NCI-H1944	0.942	0.997	1.09	1.05	1.08	1.13	1.11	1.05	1.04	1.05	0.24	0.246	0.247	0.255	0.562	0.635	0.67	0.724	0.603
NCI-H1734	0.796	0.795	0.854	0.875	0.901	0.689	0.727	0.614	0.658	0.622	0.267	0.293	0.217	0.26	0.435	0.396	0.468	0.436	0.432
LXF-289	0.994	1.03	0.95	0.934	0.991	0.851	0.829	0.801	0.782	0.824	0.205	0.262	0.21	0.148	1.01	0.899	0.904	0.845	0.848
H3255	0.488	0.523	0.548	0.536	0.572	0.828	0.882	0.853	0.945	0.995	0.606	0.638	0.561	0.459	0.549	0.585	0.581	0.569	0.583
201T	1.21	1.22	1.26	1.18	1.17	1.05	1.07	1.03	1.06	1.06	0.924	1.01	0.966	0.926	0.369	0.331	0.318	0.333	0.323
NCI-H2126	0.798	0.779	0.848	0.817	0.881	0.935	1.09	1.03	0.96	1.03	0.868	0.836	0.954	0.754	0.662	0.703	0.68	0.693	0.721
HOP-62	1.13	1.08	1.01	1.03	0.944	0.974	0.68	–	0.946	0.948	0.303	0.348	0.317	0.33	0.366	0.36	0.339	0.3	0.224
CAL-12T	1.26	1.15	1.25	1.27	1.34	0.685	0.676	0.726	0.6	0.675	0.317	0.259	0.268	0.265	1.13	1.3	1.37	1.08	1.26
NCI-H596	0.843	0.997	0.978	0.924	0.837	0.905	1.15	1.01	0.986	0.926	0.914	0.911	0.734	0.743	0.472	0.494	0.478	0.522	0.528
NCI-H1755	0.852	0.937	1.01	1	0.991	0.817	0.847	0.962	0.844	0.857	0.607	0.59	0.54	0.547	0.438	0.427	0.458	0.456	0.42
NCI-H2023	0.972	1	0.98	1.01	1.01	0.695	0.762	0.666	0.613	0.728	0.381	0.336	0.246	0.194	0.18	0.206	0.271	0.22	0.216
NCI-H2009	1.19	1.18	1.2	1.11	0.979	1.05	1.06	1.01	1.05	0.964	0.713	0.726	0.848	0.749	1.06	1.06	0.977	0.971	0.925
